Assay [1] addresses T1, CpcA (phycocyanin alpha-subunit) (Thermostichus vulcanus, UniProt Q9AM02).
T1 construct: native phycocyanin rod dissociated from intact phycobilisomes; two PC hexamers with linkers CpcC, CpcD, CpcG; with C-phycocyanin beta subunit
The assay is described as follows: cryo-EM structure, […] Å. The class given is binding. The following applies: covalent thioether to Cys84 of CpcA.

Assay [2] addresses T2, CpcB (phycocyanin beta-subunit) (Thermostichus vulcanus, UniProt Q71RW8).
T2 construct: native phycocyanin rod dissociated from intact phycobilisomes; two PC hexamers with linkers CpcC, CpcD, CpcG; with C-phycocyanin alpha subunit
The assay is described as follows: cryo-EM structure, […] Å. The format is binding. The following applies: covalent thioether to Cys84 and Cys155 of CpcB.

Here are results for 1 molecule from article PMC9205905, “Core and rod structures of a thermophilic cyanobacterial light-harvesting phycobilisome” (Nature Communications, 2022).

Consider `CC=C1C(=Cc2[nH]c(C=C3N=C(C=C4NC(=O)C(CC)=C4C)C(C)=C3CCC(=O)O)c(CCC(=O)O)c2C)NC(=O)[C@@H]1C` [phycocyanobilin], for which the “cryo-EM structure, 4.2 Å” value in assay [1] and in assay [2] was “Arrangement of chromophores in the PC rod” throughout.
